Measured values from ChEMBL document CHEMBL5625254, “Design, synthesis and evaluation of ursodeoxycholic acid-cinnamic acid hybrids as potential anti-inflammatory agents by inhibiting Akt/NF-κB and MAPK signaling pathways” (Eur J Med Chem, 2023).

What was measured:
[1] = tested on: RAW264.7; experiment: Cytotoxicity against mouse RAW264.7 cells assessed as cell viability at 20 uM incubated for 24 hrs by CCK8 assay; format: toxicity, cell-based; details: raw264.7, 24 h
[2] = tested on: RAW264.7; experiment: Anti-inflammatory activity in mouse RAW264.7 cells assessed as inhibition of LPS-induced NO production incubated for 24 hrs; format: functional, cell-based; details: for IC50: RAW264.7, 24 h; for inhibition: dose 1.25-20 µM
[3] = tested on: RAW264.7; experiment: Anti-inflammatory activity in mouse RAW264.7 cells assessed as inhibition of LPS-induced NO production at 10 uM incubated for 24 hrs relative to control; format: functional

Compound | Activity [1] | IC50 [2] [µM] | inhibition [2] | inhibition at 10 µM [3] [%]
COc1cc(/C=C\C(=O)N2CCN(C(=O)CC[C@@H](C)[C@H]3CC[C@H]4[C@@H]5[C@@H](O)C[C@@H]6C[C@H](O)CC[C@]6(C)[C@H]5CC[C@]34C)CC2)cc(OC)c1OC | Non-Toxic | – | – | –
C[C@H](CCC(=O)N1CCN(C(=O)/C=C/c2cc(F)cc(F)c2)CC1)[C@H]1CC[C@H]2[C@@H]3[C@@H](O)C[C@@H]4C[C@H](O)CC[C@]4(C)[C@H]3CC[C@]12C | Non-Toxic | – | – | –
C[C@H](CCC(=O)N1CCN(C(=O)/C=C/c2ccc(F)cc2F)CC1)[C@H]1CC[C@H]2[C@@H]3[C@@H](O)C[C@@H]4C[C@H](O)CC[C@]4(C)[C@H]3CC[C@]12C | Toxic | – | – | –
COc1cc(/C=C/C(=O)N2CCN(C(=O)CC[C@@H](C)[C@H]3CC[C@H]4[C@@H]5[C@@H](O)C[C@@H]6C[C@H](O)CC[C@]6(C)[C@H]5CC[C@]34C)CC2)cc(OC)c1OC | Non-Toxic | 9.49 | Dose-Dependent Effect | > 50
C[C@H](CCC(=O)N1CCN(C(=O)/C=C/c2ccc(F)c(F)c2)CC1)[C@H]1CC[C@H]2[C@@H]3[C@@H](O)C[C@@H]4C[C@H](O)CC[C@]4(C)[C@H]3CC[C@]12C | Non-Toxic | – | – | –
C[C@H](CCC(=O)N1CCN(C(=O)/C=C/c2ccccc2O)CC1)[C@H]1CC[C@H]2[C@@H]3[C@@H](O)C[C@@H]4C[C@H](O)CC[C@]4(C)[C@H]3CC[C@]12C | Non-Toxic | – | – | –
C[C@H](CCC(=O)N1CCN(C(=O)/C=C/c2ccccc2)CC1)[C@H]1CC[C@H]2[C@@H]3[C@@H](O)C[C@@H]4C[C@H](O)CC[C@]4(C)[C@H]3CC[C@]12C | Non-Toxic | 9.5 | Dose-Dependent Effect | > 50
COc1cc(/C=C/C(=O)N2CCN(C(=O)CC[C@@H](C)[C@H]3CC[C@H]4[C@@H]5[C@@H](O)C[C@@H]6C[C@H](O)CC[C@]6(C)[C@H]5CC[C@]34C)CC2)ccc1O | Non-Toxic | – | – | –
C[C@H](CCC(=O)N1CCN(C(=O)/C=C/c2ccc3c(c2)OCO3)CC1)[C@H]1CC[C@H]2[C@@H]3[C@@H](O)C[C@@H]4C[C@H](O)CC[C@]4(C)[C@H]3CC[C@]12C | Non-Toxic | – | – | –
COc1ccc(/C=C/C(=O)N2CCN(C(=O)CC[C@@H](C)[C@H]3CC[C@H]4[C@@H]5[C@@H](O)C[C@@H]6C[C@H](O)CC[C@]6(C)[C@H]5CC[C@]34C)CC2)cc1 | Non-Toxic | – | – | –
C[C@H](CCC(=O)N1CCN(C(=O)/C=C/c2cccc3ccccc23)CC1)[C@H]1CC[C@H]2[C@@H]3[C@@H](O)C[C@@H]4C[C@H](O)CC[C@]4(C)[C@H]3CC[C@]12C | Non-Toxic | – | – | –
C[C@H](CCC(=O)N1CCN(C(=O)/C=C/c2cccc(O)c2)CC1)[C@H]1CC[C@H]2[C@@H]3[C@@H](O)C[C@@H]4C[C@H](O)CC[C@]4(C)[C@H]3CC[C@]12C | Non-Toxic | – | – | –
CC(=O)O[C@@H]1CC[C@@]2(C)[C@@H](C1)C[C@H](OC(C)=O)[C@@H]1[C@@H]2CC[C@]2(C)[C@@H]([C@H](C)CCC(=O)N3CCN(C(=O)/C=C/c4ccc(C)cc4)CC3)CC[C@@H]12 | Non-Toxic | – | – | –
C[C@H](CCC(=O)N1CCN(C(=O)CCc2ccccc2)CC1)[C@H]1CC[C@H]2[C@@H]3[C@@H](O)C[C@@H]4C[C@H](O)CC[C@]4(C)[C@H]3CC[C@]12C | Non-Toxic | – | – | –
C[C@H](CCC(=O)N1CCN(C(=O)/C=C/c2ccc(Cl)c(Cl)c2)CC1)[C@H]1CC[C@H]2[C@@H]3[C@@H](O)C[C@@H]4C[C@H](O)CC[C@]4(C)[C@H]3CC[C@]12C | Non-Toxic | – | – | –
C[C@H](CCC(=O)N1CCN(C(=O)/C=C/c2ccc(Cl)cc2)CC1)[C@H]1CC[C@H]2[C@@H]3[C@@H](O)C[C@@H]4C[C@H](O)CC[C@]4(C)[C@H]3CC[C@]12C | Non-Toxic | 8.23 | Dose-Dependent Effect | > 50
C[C@H](CCC(=O)N1CCN(C(=O)/C=C/c2ccccc2Cl)CC1)[C@H]1CC[C@H]2[C@@H]3[C@@H](O)C[C@@H]4C[C@H](O)CC[C@]4(C)[C@H]3CC[C@]12C | Non-Toxic | – | – | –
C[C@H](CCC(=O)N1CCN(C(=O)/C=C/c2cc(F)c(F)c(F)c2)CC1)[C@H]1CC[C@H]2[C@@H]3[C@@H](O)C[C@@H]4C[C@H](O)CC[C@]4(C)[C@H]3CC[C@]12C | Toxic | – | – | –
C/C(=C\c1ccccc1)C(=O)N1CCN(C(=O)CC[C@@H](C)[C@H]2CC[C@H]3[C@@H]4[C@@H](O)C[C@@H]5C[C@H](O)CC[C@]5(C)[C@H]4CC[C@]23C)CC1 | Non-Toxic | – | – | –
C[C@H](CCC(=O)N1CCN(C(=O)/C=C/c2cccc(OC(F)(F)F)c2)CC1)[C@H]1CC[C@H]2[C@@H]3[C@@H](O)C[C@@H]4C[C@H](O)CC[C@]4(C)[C@H]3CC[C@]12C | Non-Toxic | 8.58 | Dose-Dependent Effect | > 50
C[C@H](CCC(=O)N1CCN(C(=O)/C=C/c2ccc(OC(F)(F)F)cc2)CC1)[C@H]1CC[C@H]2[C@@H]3[C@@H](O)C[C@@H]4C[C@H](O)CC[C@]4(C)[C@H]3CC[C@]12C | Toxic | – | – | –
Cc1ccc(/C=C/C(=O)N2CCN(C(=O)CC[C@@H](C)[C@H]3CC[C@H]4[C@@H]5C(=O)C[C@@H]6CC(=O)CC[C@]6(C)[C@H]5CC[C@]34C)CC2)cc1 | Toxic | – | – | –
C[C@H](CCC(=O)N1CCN(C(=O)/C=C\c2ccc3c(c2)OCO3)CC1)[C@H]1CC[C@H]2[C@@H]3[C@@H](O)C[C@@H]4C[C@H](O)CC[C@]4(C)[C@H]3CC[C@]12C | Non-Toxic | – | – | –
COc1cc(/C=C\C(=O)N2CCN(C(=O)CC[C@@H](C)[C@H]3CC[C@H]4[C@@H]5[C@@H](O)C[C@@H]6C[C@H](O)CC[C@]6(C)[C@H]5CC[C@]34C)CC2)ccc1O | Non-Toxic | – | – | –
C[C@H](CCC(=O)N1CCN(C(=O)/C=C/c2cccc(Cl)c2)CC1)[C@H]1CC[C@H]2[C@@H]3[C@@H](O)C[C@@H]4C[C@H](O)CC[C@]4(C)[C@H]3CC[C@]12C | Non-Toxic | – | – | –
C[C@H](CCC(=O)N1CCN(C(=O)/C=C/c2ccc(O)cc2)CC1)[C@H]1CC[C@H]2[C@@H]3[C@@H](O)C[C@@H]4C[C@H](O)CC[C@]4(C)[C@H]3CC[C@]12C | Non-Toxic | – | – | –
COc1cc(/C=C/C(=O)N2CCN(C(=O)CC[C@@H](C)[C@H]3CC[C@H]4[C@@H]5[C@@H](O)C[C@@H]6C[C@H](O)CC[C@]6(C)[C@H]5CC[C@]34C)CC2)cc(OC)c1O | Toxic | – | – | –
C[C@H](CCC(=O)N1CCN(C(=O)/C=C/c2ccc(C(F)(F)F)cc2)CC1)[C@H]1CC[C@H]2[C@@H]3[C@@H](O)C[C@@H]4C[C@H](O)CC[C@]4(C)[C@H]3CC[C@]12C | Non-Toxic | – | – | –
